“Also recorded” adds a separate entry of the source.
Legend:
rat liver = assay: Ischemic and reperfusion damage to rat liver; conditions: additive to organ preservation solutions
[1] = system: lipid peroxidation in renal tissue; assay: Ex vivo hypoxia and reoxygenation of renal tissue after oral administration to mice; type: in vivo, mouse; conditions: for time after administration up till which lipid peroxidation was abolished: oral dose of 50 mg/kg; for inhibition of lipid peroxidation in renal tissue subjected to ex vivo hypoxia and reoxygenation: oral dose of 50 mg/kg (dose for compounds I and II)
rat kidney = assay: Ischemic and reperfusion damage to rat kidney; conditions: additive to organ preservation solutions
rat bone marrow = assay: Ischemic and reperfusion damage to rat bone marrow; conditions: additive to organ preservation solutions
[2] = system: oxidation of lipoproteins in human plasma (mouse peritoneal macrophages); assay: Oxidation of lipoproteins in human plasma in the presence of mouse peritoneal macrophages; type: cell-based, human plasma; mouse cells
[3] = system: isolated heart cells (myocytes); assay: Inhibition of reoxygenation damage in isolated heart cells (LD-leakage); type: cell-based, rat; conditions: for prevention of ischemic and reperfusion damage to isolated rat heart cells: additive to organ preservation solutions
Experimental: Hearts were collected from 2 and 6 days old rats and the ventricles were dissected free, placed in Hanks balanced salt solution without Ca^2+ and Mg^2+ but with 0.35 g/l sodium-carbonate and cut in small pieces. The cells were dispersed in the same solution but supplemented with collagenase solution (type 1, 0.8 mg/ml) at 37° C. for 10 minutes and centrifuged, 160 xg for 5 minutes. Subsequently, 5 serial 20 minutes digestions were performed. The cells from the initial digestion were discarded. Centrifugation was made after each 20 minutes period and the collage nase solution was changed to Ham's F 10 culture medium, supplemented with 10% fetal bovine serum (FBS), glutamine 2 mM, penicillin 50 IU/ml and streptomycin 50 μg/ml. A modified method to enrich the isolation of myocytes, were used, including replaiting the cells twice for 30 and 90 min, respectively. The myocytes were plated on 35 mm plastic culture dishes at a density of approximately 9×10^5 cells/ml (1.8×10^6 cells/dish). The cells were kept in culture for 6 days at 37° C. and 5% CO2 under aerobic conditions in a Forma Scientific carbon dioxide incubator, 5% CO2. During this period the cells reached confluence and were beating spontaneously at an approximate frequency of 20-40 beats/min. Each culture dish contained 0.9±0.2 mg protein. The supplemented F10-medium was changed each day. The antioxidant compound II was added to the culture medium in ethanol, reaching a final concentration of 0.1% ethanol. The final concentration of compound II in the culture medium was 0.01, 0.1, 1.0 or 5.0 μmol/l. Before starting the experiment the medium above the myocytes were removed and changed to fresh F10-medium supplemented with glutamine, which was made hypoxic by argon bubbling for 1 hour before addition to the cells. The culture plates were transferred to specially designed air tight thermostated chambers. The experiment lasted for 300 min including 60 min hypoxia, when nitrogen (95% N2, 5% CO2) was slowly gassed above the cells, followed by 240 min reoxygenation (95% O2, 5% CO2). Cell viability was determined by leakage of LD into the medium, and was analyzed after various times 1, 30, 60, 90, 120, 180, 240 and 300 min.

[4] = system: lipid peroxidation in renal tissue; assay: In vitro hypoxia and reoxygenation of kidney tissue (TBARS formation); type: cell-based; conditions: pH 7.4; rat kidney slices, 37° C., pH 7.40, 40 min hypoxia (argon), 30 min reoxygenation; read-out: pIC50, -log of the concentration needed to reduce TBARS formation by 50% of the corresponding vehicle value (converted)
Experimental: Lipid peroxidation was also tested in renal tissue. Samples were obtained from anesthetized rats, cut into 2 mm slices and put into 50 ml Erlenmeyer flasks containing 40 mmol 1^-1 Hepes buffer (pH 7.40) 37° C. (10-100 mg tissue per 4 ml buffer). The tissue was made hypoxic for 20 min by bubbling a fine stream of argon gas through the buffer. After that an antioxidant or the corresponding vehicle was added to the buffer and the tissue was kept under argon for an additional period of 20 min. The sample was then reoxygenated by vigourous bubbling of the buffer with 95.5% O2 :CO2. After 30 min reoxygenation the iron chelator deferoxamine mesylate (Ciba Geigy AG, Basel, Switzerland) was added (final concentration 45 μmol 1^-1). The sample was homogenized on ice, quickly frozen in dry-ice and alcohol and stored at -70° C. After thawing the formation of 2-thiobarbituric acid-reactive material (TBARS) was determined (Svensson et al Scand J Clin Invest 1993:53). The potencies of the antioxidants (pIC50 i.e. -log of the concentration (antioxidant) needed to reduce TBARS formation by 50% of the corresponding vehicle value) was for compound I: 6.8 and for compound II: 6.8.

[5] = system: oxidation of lipoproteins in human plasma (rabbit smooth muscle cells); assay: Oxidation of lipoproteins in human plasma in the presence of rabbit smooth muscle cells; type: cell-based
lipid peroxidation = assay: Ascorbate/Fe^2+ -dependent lipid peroxidation; type: biochemical; conditions: ascorbate/Fe^2+ model, in vitro
Description: The indenoindole compounds are efficient as flee-radical scavengers or antioxidants. An assay system measuring the concentration of the compounds of formulas I and II required to inhibit lipid peroxidation by 50% (IC50) was used. The assay system, ascorbate/Fe^2+ -dependent lipid peroxidation, was the same system used in EP-A 409 410 and detailed information about the system is given in said patent specification.

[6] = system: isolated perfused rat heart; assay: Postischemic recovery of the isolated perfused (Langendorff) heart after six hours cold ischemia; conditions: for prevention of ischemic and reperfusion damage to isolated perfused rat heart: additive to organ preservation solutions
Experimental: Experiments were designed to investigate the effect on the myocardial recovery after six hours cold ischemia when an antioxidative agent compound II, was added to a crystalloid cardioplegic solution, such as Plegisol (Abbott). The retrogradely perfused (Langendorff) isolated rat heart with an intra-ventricular balloon was used. The hearts were single flushed perfused (10 ml, 4° C.) with either plain Plegisol or Plegisol supplemented with 1 μmol/l of compound II. The hearts were then stored for 6 hours in the respective solution at 4° C. In a third group hearts were single flush perfused with Plegisol without storage of the hems.

COc1cc(C)c2c(c1)C1Cc3ccccc3C1N2 (stereo not drawn) [Compound I, 8-Methoxy-6-methyl-THII]
prevention of ischemic and reperfusion damage to rat liver (rat liver): prevent ischemic and reperfusion damage | time after administration up till which lipid peroxidation was abolished [1]: ≤ 6 h | inhibition of lipid peroxidation in renal tissue subjected to ex vivo hypoxia and reoxygenation [1]: abolished lipid peroxidation in renal tissue | prevention of ischemic and reperfusion damage to rat kidney (rat kidney): prevent ischemic and reperfusion damage | prevention of ischemic and reperfusion damage to rat bone marrow (rat bone marrow): prevent ischemic and reperfusion damage | prevention of oxidation of lipoproteins in human plasma [2]: prevent efficiently oxidation of lipoproteins | prevention of ischemic and reperfusion damage to isolated rat heart cells [3]: prevent ischemic and reperfusion damage | IC50 [4]: 158 nM | prevention of oxidation of lipoproteins in human plasma [5]: prevent efficiently oxidation of lipoproteins | pIC50, inhibition of ascorbate/Fe^2+ -dependent lipid peroxidation (lipid peroxidation): 8.0 | prevention of ischemic and reperfusion damage to isolated perfused rat heart [6]: prevent ischemic and reperfusion damage

COc1cc(C)c2c(c1)C1c3ccccc3CC1N2 (stereo not drawn) [Compound II, 9-Methoxy-7-methyl-iso-THII]
prevention of ischemic and reperfusion damage to rat liver (rat liver): prevent ischemic and reperfusion damage | time after administration up till which lipid peroxidation was abolished [1]: ≤ 6 h | inhibition of lipid peroxidation in renal tissue subjected to ex vivo hypoxia and reoxygenation [1]: abolished lipid peroxidation in renal tissue | prevention of ischemic and reperfusion damage to rat kidney (rat kidney): prevent ischemic and reperfusion damage | prevention of ischemic and reperfusion damage to rat bone marrow (rat bone marrow): prevent ischemic and reperfusion damage | prevention of oxidation of lipoproteins in human plasma [2]: prevent efficiently oxidation of lipoproteins | inhibition at 1 µM ([3]; Rattus norvegicus, 1 μmol/l, 60 min hypoxia, 240 min reoxygenation, read-out: reduction of the damage (LD-leakage)): 90% | IC50 ([3]; Rattus norvegicus, 60 min hypoxia, 240 min reoxygenation, read-out: calculated pIC50 (-logIC50), LD-leakage (converted)): 31.6 nM | prevention of ischemic and reperfusion damage to isolated rat heart cells [3]: prevent ischemic and reperfusion damage | IC50 [4]: 158 nM | prevention of oxidation of lipoproteins in human plasma [5]: prevent efficiently oxidation of lipoproteins | pIC50, inhibition of ascorbate/Fe^2+ -dependent lipid peroxidation (lipid peroxidation): 8.2 | postischemic LVDP compared to plain Plegisol, in words ([6]; Plegisol with 1 μmol/l, 6 hours at 4° C.): significantly improved; also recorded: drastically improves the functional recovery of rat hearts | postischemic left ventricular developed pressure (LVDP) ([6]; Plegisol with 1 μmol/l, 6 hours at 4° C., mean±SEM, plain Plegisol 57±11%, without storage 89±1%): 90±9 % of preischemic value | prevention of ischemic and reperfusion damage to isolated perfused rat heart [6]: prevent ischemic and reperfusion damage

Cc1cc(C)c2c(c1)C1(C)Cc3ccccc3C1(C)N2 (stereo not drawn) [Compound III, 4b,6,8,9b-Tetramethyl-THll, reference compound]
time after administration up to which inhibitory effect on lipid peroxidation could be detected ([1]; dose not separately printed for compound III): up to 30 min | inhibition of lipid peroxidation in renal tissue subjected to ex vivo hypoxia and reoxygenation [1]: only weak inhibitory effect on lipid peroxidation | pIC50, inhibition of ascorbate/Fe^2+ -dependent lipid peroxidation (lipid peroxidation): 7.4

Cc1c(C)c2c(c(C)c1O)CCC(C)(CCCC(C)CCCC(C)CCCC(C)C)O2 (stereo not drawn) [α-Tocopherol, reference compound]
pIC50, inhibition of ascorbate/Fe^2+ -dependent lipid peroxidation (lipid peroxidation): 5.0
